We go through 30 compounds from ChEMBL document CHEMBL5104182, “Design and Synthesis of a 2-Amino-pyridine Derivative as a Potent CDK8 Inhibitor for Anti-colorectal Cancer Therapy” (J Med Chem, 2022).

Bounds are passed on as bounds.

The subject of data set [1] is CT26. Nature of the data set: Antiproliferative activity against […] cells assessed as cell viability incubated for 48 hrs by MTT assay. Type of data set: functional. The conditions noted are these: Mus musculus.
The subject of data set [2] is HCT-116. Put plainly: Antiproliferative activity against human HCT-116 cells assessed as cell viability incubated for 48 hrs by MTT assay. Type of data set: functional. A general note: Formazan colour is commonly taken as a measure of viable cells.
Data set [3] deals with HT-29. Nature of the data set: Antiproliferative activity against human HT-29 cells assessed as cell viability incubated for 48 hrs by MTT assay. Format: functional.
Data set [4] has as its system SW480. Put plainly: Antiproliferative activity against human SW480 cells assessed as cell viability incubated for 48 hrs by MTT assay. Format: functional.
A short description of data set [5]: Cytotoxicity against human GES1 cells assessed as cell viability incubated for 48 hrs by MTT assay. Type of data set: toxicity, cell-based.
Data set [6] deals with T1, Cyclin-dependent kinase 8 (Homo sapiens, UniProt P49336). The conditions noted are these: dose 200.0 nM.
Data set [7] has as its target T1, Cyclin-dependent kinase 8. Put plainly: Inhibition of CDK8 (unknown origin) assessed as inhibition rate.

T1 sequence (P49336 whole entry): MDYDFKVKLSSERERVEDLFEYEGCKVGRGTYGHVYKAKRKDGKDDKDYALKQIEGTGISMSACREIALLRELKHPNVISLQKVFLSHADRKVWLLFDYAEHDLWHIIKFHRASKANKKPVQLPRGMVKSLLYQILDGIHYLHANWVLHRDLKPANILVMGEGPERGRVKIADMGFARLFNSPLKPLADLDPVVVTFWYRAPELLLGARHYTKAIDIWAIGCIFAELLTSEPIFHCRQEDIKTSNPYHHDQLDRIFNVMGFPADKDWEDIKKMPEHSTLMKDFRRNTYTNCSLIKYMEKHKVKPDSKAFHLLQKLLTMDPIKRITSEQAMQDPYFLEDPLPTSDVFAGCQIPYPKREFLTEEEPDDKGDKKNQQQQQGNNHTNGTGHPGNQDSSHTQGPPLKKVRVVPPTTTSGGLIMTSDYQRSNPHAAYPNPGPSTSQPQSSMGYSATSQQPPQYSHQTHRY

Take `O=C(Nc1cccc(Oc2cnc3[nH]ccc3c2)c1)Nc1cccc(C(F)(F)F)c1`: the concentration for 50% growth inhibition (GI50) (as a rule, the concentration at which growth is held to half of that of the control) is 8.7 µM in data set [1], 8 µM in data set [2], 1.1 µM in data set [3] and 2.5 µM in data set [4]. Further, the GI50 at 48 h in data set [5] was 40.7 µM.

Turning to `Nc1ccc(Oc2cccc(NC(=O)Nc3ccc(F)cc3)c2)cn1`, the GI50 in data set [1] was 52.3 µM; in data set [2], > 100 µM; in data set [3], > 100 µM; in data set [4] it was 10.9 µM. Besides, the GI50 at 48 h in data set [5] was > 100 µM.

On to `Nc1ccc(Oc2cccc(NC(=O)Nc3cccc(Cl)c3)c2)cn1`, for which the GI50 is 70.4 µM in data set [1], 29.7 µM in data set [2], 36.1 µM in data set [3] and 44.2 µM in data set [4]. In data set [5], the 50% growth inhibitory concentration (GI50) at 48 h is > 100 µM.

Turning to `Cc1ccc(NC(=O)Nc2ccc(Oc3cnc4[nH]ccc4c3)cc2)cc1C(F)(F)F`, the GI50 in data set [1] is 55.2 µM; in data set [2], > 100 µM; in data set [3] it was 39.8 µM; in data set [4], 30.1 µM. In data set [5], the GI50 at 48 h worked out at 24 µM.

With `O=C(Nc1ccc(Oc2cnc3[nH]ccc3c2)cc1)Nc1cccc(C(F)(F)F)c1`, the GI50 in data set [1] amounted to 5.3 µM; in data set [3], 2.1 µM; in data set [4], 1.9 µM.

In the case of `Cn1cc(-c2ccc(-c3cncc(Cl)c3N3CCC4(CCNC4=O)CC3)cc2)cn1`, the GI50 in data set [1] stood at 11.3 µM; in data set [2] it was 9.6 µM; in data set [3], 7.8 µM; in data set [4] it was 10.4 µM. The inhibition (usually the drop in the measured response relative to a control, in per cent) in data set [6] came out at 79%. Further, the IC50 – broadly, the concentration that inhibits the measured activity by half – in data set [7] amounted to 0.0385 µM. For the same compound, in data set [5], the GI50 at 48 h was 42.7 µM.

As to `Nc1ccc(Oc2ccc(NC(=O)Nc3cccc(Cl)c3Cl)cc2)cn1`, the GI50 in data set [1] was 88.2 µM; in data set [2], 54.6 µM; in data set [3], 18.8 µM; in data set [4], 77.5 µM. Moreover, the 50% growth inhibitory concentration (GI50) at 48 h in data set [5] was > 100 µM.

In the case of `Cc1cccc(NC(=O)Nc2ccc(Oc3ccc(N)nc3)cc2)c1`, the 50% growth inhibitory concentration (GI50) in data set [1] was > 100 µM; in data set [2], 37.4 µM; in data set [3] it was 59.4 µM; in data set [4], 12.5 µM. Besides, the GI50 at 48 h in data set [5] is > 100 µM.

With `Cc1ccc(NC(=O)Nc2cccc(Oc3ccc(N)nc3)c2)cc1`, the GI50 is > 100 µM in data set [1], > 100 µM in data set [2], 19 µM in data set [3] and > 100 µM in data set [4]. In addition, the 50% growth inhibitory concentration (GI50) at 48 h in data set [5] was > 100 µM.

For the compound `Nc1ccc(Oc2ccc(NC(=O)Nc3cccc(F)c3)cc2)cn1`, the GI50 in data set [1] came to 66.7 µM; in data set [2], 70.9 µM; in data set [3] it was 49.9 µM; in data set [4], 45.2 µM. Further, the GI50 at 48 h in data set [5] was > 100 µM.

As to `Cc1ccc(NC(=O)Nc2cccc(Oc3ccc(N)nc3)c2)cc1Cl`, the GI50 in data set [1], in data set [2], in data set [3] and in data set [4] was > 100 µM throughout. Besides, the GI50 at 48 h in data set [5] was > 100 µM.

Turning to `Nc1ccc(Oc2cccc(NC(=O)Nc3ccc(F)c(Cl)c3)c2)cn1`, the concentration for 50% growth inhibition (GI50) in data set [1] amounted to 23.5 µM; in data set [2], 4 µM; in data set [3] it was 19.1 µM; in data set [4] it was 17.9 µM. Moreover, the GI50 at 48 h in data set [5] turned out to be 31.3 µM.

As for `Nc1ccc(Oc2ccc(NC(=O)Nc3cccc(Cl)c3)cc2)cn1`, the GI50 in data set [1] was > 100 µM; in data set [2], 12.5 µM; in data set [3], 8.5 µM; in data set [4], 13.2 µM. The GI50 at 48 h in data set [5] came to 65.5 µM.

On to `CNC(=O)c1cc(Oc2ccc(NC(=O)Nc3ccc(Cl)c(C(F)(F)F)c3)cc2)ccn1` [SORAFENIB], for which the 50% growth inhibitory concentration (GI50) worked out at 30.2 µM in data set [1], 19.8 µM in data set [2], 25.6 µM in data set [3] and 14.7 µM in data set [4]. For the same compound, the GI50 at 48 h in data set [5] came out at 28.9 µM.

With `Nc1ccc(Oc2cccc(NC(=O)Nc3ccc(Cl)c(Cl)c3)c2)cn1`, the GI50 in data set [1] stood at 32.4 µM; in data set [2] it was 7.6 µM; in data set [3], 30.3 µM; in data set [4], 29.2 µM. Further, the GI50 at 48 h in data set [5] is > 100 µM.

Consider `Cc1cccc(NC(=O)Nc2cccc(Oc3ccc(N)nc3)c2)c1`, for which the GI50 was > 100 µM in data set [1], 26.6 µM in data set [2], 41.5 µM in data set [3] and 66.3 µM in data set [4]. Further, the GI50 at 48 h in data set [5] is > 100 µM.

For `CC(=O)Nc1ccc(Oc2ccc(NC(=O)Nc3cccc(C(F)(F)F)c3)cc2)cn1`, the GI50 was 42.7 µM in data set [1], 1.8 µM in data set [2], 8.6 µM in data set [3] and 18.4 µM in data set [4]. Also, the GI50 at 48 h in data set [5] is 28.2 µM.

For the compound `Nc1ccc(Oc2cccc(NC(=O)Nc3cccc(C(F)(F)F)c3)c2)cn1`, the GI50 worked out at 6.9 µM in data set [1], 1.7 µM in data set [2], 2.5 µM in data set [3] and 10.4 µM in data set [4]. Also, the GI50 at 48 h in data set [5] is > 100 µM.

Turning to `Nc1ccc(Oc2cccc(NC(=O)Nc3ccccc3F)c2)cn1`, the GI50 in data set [1] was 83.1 µM; in data set [2] it was 34.4 µM; in data set [3], 27.5 µM; in data set [4], 43 µM. Besides, the GI50 at 48 h in data set [5] was found to be 43.6 µM.

Regarding `O=C(Nc1cccc(Oc2cnc3[nH]ccc3c2)c1)Nc1ccc(Cl)c(C(F)(F)F)c1`, the 50% growth inhibitory concentration (GI50) in data set [1] is > 100 µM; in data set [2] it was 53.2 µM; in data set [3] it was 100 µM; in data set [4] it was 100 µM.

Take `Nc1ccc(Oc2cccc(NC(=O)Nc3ccc(Cl)c(C(F)(F)F)c3)c2)cn1`: the GI50 in data set [1] was 5.2 µM; in data set [2] it was 9.5 µM; in data set [3], 8.1 µM; in data set [4], 9.1 µM. In data set [5], the GI50 at 48 h amounted to 10.2 µM.

Turning to `Nc1ccc(Oc2ccc(NC(=O)Nc3cccc(Br)c3)cc2)cn1`, the GI50 in data set [1] was 35.6 µM; in data set [2], > 100 µM; in data set [3] it was > 100 µM; in data set [4], 14 µM. Also, the GI50 at 48 h in data set [5] is > 100 µM.

For the compound `O=C(Nc1ccc(Oc2cnc3[nH]ccc3c2)cc1)Nc1ccc(Cl)c(C(F)(F)F)c1`, the 50% growth inhibitory concentration (GI50) in data set [1] was found to be 8.3 µM; in data set [3], 2.3 µM; in data set [4] it was 1.4 µM.

Consider `Nc1ccc(Oc2cccc(NC(=O)Nc3ccc(F)c(C(F)(F)F)c3)c2)cn1`, for which the GI50 came out at 25.5 µM in data set [1], 7.4 µM in data set [2], 7.7 µM in data set [3] and 12.8 µM in data set [4]. The GI50 at 48 h in data set [5] is 39.1 µM.

`Nc1ccc(Oc2ccc(NC(=O)Nc3ccc(Cl)c(C(F)(F)F)c3)cc2)cn1`: the 50% growth inhibitory concentration (GI50) was found to be 12.9 µM in data set [1], 15.7 µM in data set [2], 3.4 µM in data set [3] and 3.9 µM in data set [4]. Also, the GI50 at 48 h in data set [5] is 26.8 µM.

On to `O=C(Nc1ccc(Oc2cnc3[nH]ccc3c2)cc1)Nc1cccc(Cl)c1`, for which the GI50 in data set [1] was 20.9 µM; in data set [2], 90.1 µM; in data set [3] it was 41.1 µM; in data set [4], 30.7 µM.

Regarding `COc1cccc(NC(=O)Nc2ccc(Oc3ccc(N)nc3)cc2)c1`, the GI50 is > 100 µM in data set [1], 20.4 µM in data set [2], 9 µM in data set [3] and 22.5 µM in data set [4]. For the same compound, the GI50 at 48 h in data set [5] turned out to be 43.2 µM.

Turning to `Nc1ccc(Oc2ccc(NC(=O)Nc3ccc(F)c(C(F)(F)F)c3)cc2)cn1`, the GI50 in data set [1] came out at 7.4 µM; in data set [2], 11.2 µM; in data set [3] it was 8.5 µM; in data set [4] it was 15.5 µM. Further, in data set [5], the 50% growth inhibitory concentration (GI50) at 48 h worked out at 52.5 µM.

As for `Nc1ccc(Oc2cccc(NC(=O)Nc3cccc(Br)c3)c2)cn1`, the 50% growth inhibitory concentration (GI50) worked out at 44.5 µM in data set [1], 21.3 µM in data set [2], 50 µM in data set [3] and 29.6 µM in data set [4]. Moreover, the GI50 at 48 h in data set [5] is > 100 µM.

As to `Nc1ccc(Sc2ccc(NC(=O)Nc3cccc(C(F)(F)F)c3)cc2)cn1`, the GI50 in data set [1] was 10.3 µM; in data set [2], 43.6 µM; in data set [3], 16.7 µM; in data set [4], 8.2 µM. Besides, the GI50 at 48 h in data set [5] is > 100 µM.
